# Test results: US8853271B2, “Method for inhibiting activity and/or expression of matrix metalloproteinase, inhibiting phosphorylation of mitogen-activated protein kinase, and/or promoting expression of collagen using tormentic acid” (China Medical University, priority 2010, dated 2014)
# Columns and labels:
# [1] = test system: matrix metalloproteinase (collagenase, Sigma); experiment: Fluorogenic substrate test (collagenase substrate III); format: biochemical
# Source text: (§1) In addition to collagen decomposing, matrix metalloproteinase (collagenase) has the effect of gelatin decomposing. The property of the fluorescence generation of decomposed gelatin and decomposed commercial substrates of collagenase (purchased from Calbiochem, la Jolla, […]) was used in this example to evaluate the inhibitory effect of tormentic acid on the matrix metalloproteinase.
# A specific amount of a solution of the collagenase substrate III (Mcc-Pro-Leu-Gly-Pro-D-Lys (DNP)—OH, purchased from Calbiochem, la Jolla, […]), a matrix metalloproteinase (collagenase, Sigma) solution, tormentic acid or doxycycline as the positive control were mixed and added to a 96 well plate. Then, an ELISA reader was used to determine the […] (405 nm), respectively. The results are shown in Table 2 and FIG. 3, wherein ΔF is the fluorescence value that the basic fluorescence value at time zero has been deducted.
# [2] = test system: matrix metalloproteinase-1; experiment: Western blotting of matrix metalloproteinase-1 in UV-exposed fibroblasts; format: cell-based, human; conditions: WS1 fibroblasts exposed to UV for 24 hours, treated for 1 hour before collection
# [3] = test system: WS1 human skin dermal fibroblasts; experiment: Test of cell survival rate (MTS assay) under UV exposure; format: cell-based; conditions: for absorption value (MTS, 490 nm) / survival rate (%): UV 90 mJ/cm^2, 24 hours; for death of the cells (in words): 90 mJ/cm^2 UV
# Procedure: The following experiment was carried out by using WS1 human skin dermal fibroblasts (purchased from Food Industry Research and Development Institute, Taiwan). Under exposure to the ultraviolet ray (UV) with the intensity range from 0 mJ/cm^2 to 120 mJ/cm^2, it will not cause death to WS1 human skin dermal fibroblasts. Thus, this experiment was carried out at the UV intensity of 90 mJ/cm^2. First, tormentic acid of various concentrations (0, 0.1, 1.0, 2.0, or 10 μg/ml) was added to a culture medium (comprising α-minimum essential medium, 10% heat-inactivated Fetal Bovine Serum, 100 U/ml penicillin, and 100 μg/ml Streptomycin) containing the WS1 human skin dermal fibroblasts. After the cells were cultured for 24 hours, an MTS (3-(4,5-di-methylthiazol-2-yl)-5-(3-carboxymethoxy phenyl)-2-(4-sulfophenyl)-2H-tetrazolium, commercially available from Promega, Madison, Wis., America) assay was carried out to observe the cell survival rate, and the results are shown in Table 3. The mechanism of the MTS assay is as follows: the dehydrogenase activity of living cells can reduce MTS to a water soluble product that is red purple in color, which has a maximum absorption at a wavelength of 490 nm, and thus, the cell survival rate can be evaluated by absorption values.
# [4] = test system: c-Jun N-terminal Kinase (JNK); experiment: Western blotting of phosphorylated JNK in UV-exposed fibroblasts; format: cell-based, human; conditions: WS1 fibroblasts exposed to UV for 24 hours, treated for 1 hour before collection
# Procedure: (§2) The skin “photo-aging” caused by ultraviolet rays may lead to an increase of matrix metalloproteinase in the dermis via the phosphorylation of the mitogen-activated protein kinase (MAPK), and thus a western blotting assay was also carried out in this experiment to observe the effect of tormentic acid on the phosphorylation of mitogen-activated protein kinase in cells; the result is shown in FIG. 5.
# (§3) However, when the cells were treated with tormentic acid for 1 hour before collection, the phosphorylation of JNK, ERK, and p38 can be inhibited.
# [5] = test system: extracellular signal-regulated protein kinase (ERK); experiment: Western blotting of phosphorylated ERK in UV-exposed fibroblasts; format: cell-based, human; conditions: WS1 fibroblasts exposed to UV for 24 hours, treated for 1 hour before collection
# Procedure: as §2, §3
# [6] = test system: c-Jun; experiment: Western blotting of AP-1 subunit c-Jun in the nucleus; format: cell-based, human; conditions: WS1 fibroblasts exposed to UV for 24 hours, treated for 1 hour before collection
# Source text: (§4) The UV exposure of cells induces JNK and p38 to activate c-Jun, which then enters into the nucleus. Then, c-Fos translocates into the nucleus under the regulation of ERK and p38. A c-Jun subunit combines with a c-Fos subunit to form an activator protein 1 (AP-1) gene transcription factor, which then participates in gene expression to promote the transcription of message RNA (mRNA) of matrix metalloproteinase-1 (MMP-1) and reduces the gene expression of procollagen-Iα1 (procollagen α1 of Type I collagen). Thus, a western blotting assay was carried out in this experiment to further observe the protein expression of AP-1 in the nucleus, and the result is shown in FIG. 6. After the WS1 human skin dermal fibroblasts were exposed to UV rays for 24 hours, the expression level of c-Jun and c-Fos in the nucleus were increased. However, when the cells were treated with tormentic acid for 1 hour before collection, the expression of c-Jun and c-Fos were inhibited.
# [7] = test system: procollagen-1; experiment: Western blotting of procollagen-1 in UV-exposed fibroblasts; format: cell-based, human; conditions: WS1 fibroblasts exposed to UV for 24 hours, treated for 1 hour before collection
# [8] = test system: bacterial matrix metalloproteinase; experiment: Decomposition test of gelatin (inhibition of matrix metalloproteinase activity); format: biochemical
# Procedure: as §1
# A 50 μl buffer solution (pH 7.8, contained 50 mM Tris-HCl, 10 mM calcium chloride, and 0.15 M sodium chloride), 30 μl sterile water, and 10 μl bacterial matrix metalloproteinase (0.1 mg/ml, Sigma) were added into an eppendorf tube, and then a 10 μl solution of tormentic acid ([…]) or doxycycline as the positive control was added into the eppendorf tube. The mixture was well mixed, and incubated at room temperature for 60 minutes.
# The mixture (30 μl) was drawn and dropped on a circular filter paper covering a gelatin culture medium, and then the filter paper along with the medium was placed into an incubator under 37° C. After incubating for 18 hours, the filter paper was removed. The culture medium was stained with a Coomassie Blue R-250 staining solution (purchased from Amresco company, America), and then was destained with a destaining solution. Because gelatin decomposed by matrix metalloproteinase will not be stained by the Coomassie Blue staining solution, the transparency of the culture medium may reveal the activity of the matrix metalloproteinase. After the culture medium was photographed, the picture was analyzed by an image analysis software (AlphaDigiDoc 1201, purchased from Alpha Innotech Co., America) to calculate the inhibition rate of tormentic acid on the activity of gelatin decomposition of the matrix metalloproteinase.
# [9] = test system: p38 protein; experiment: Western blotting of phosphorylated p38 in UV-exposed fibroblasts; format: cell-based, human; conditions: WS1 fibroblasts exposed to UV for 24 hours, treated for 1 hour before collection
# Procedure: as §2, §3
# [10] = test system: c-Fos; experiment: Western blotting of AP-1 subunit c-Fos in the nucleus; format: cell-based, human; conditions: WS1 fibroblasts exposed to UV for 24 hours, treated for 1 hour before collection
# Source text: as §4
smiles,measurement,setting,value
C[C@@H]1CC[C@]2(C(=O)O)CC[C@]3(C)C(=CC[C@@H]4[C@@]5(C)C[C@@H](O)[C@H](O)C(C)(C)[C@@H]5CC[C@]43C)[C@@H]2[C@]1(C)O [tormentic acid],generation of fluorescence from collagenase substrate III (in words),[1],can reduce the generation of fluorescence
same,Inhibition rate (collagenase substrate III decomposition),[1]; 50 μg/ml,(39%)
same,"ΔF (fluorescence value, time-zero value deducted)",[1]; 50 μg/ml,54.8 ± 8.4
same,Inhibition rate (collagenase substrate III decomposition),[1]; 100 μg/ml,(44.7%)
same,"ΔF (fluorescence value, time-zero value deducted)",[1]; 100 μg/ml,49.8 ± 7.2
same,Inhibition rate (collagenase substrate III decomposition),[1]; 250 μg/ml,(79.1%)
same,"ΔF (fluorescence value, time-zero value deducted)",[1]; 250 μg/ml,18.8 ± 10.8
same,expression of matrix metalloproteinase-1,[2],inhibited
same,"absorption value (MTS, 490 nm)",[3]; 0.1 μg/ml,1.08 ± 0.95
same,survival rate (%),[3]; 0.1 μg/ml,103.8%
same,"absorption value (MTS, 490 nm)",[3]; 1.0 μg/ml,1.10 ± 0.97
same,survival rate (%),[3]; 1.0 μg/ml,105.8%
same,"absorption value (MTS, 490 nm)",[3]; 2.0 μg/ml,1.10 ± 0.98
same,survival rate (%),[3]; 2.0 μg/ml,105.8%
same,"absorption value (MTS, 490 nm)",[3]; 10.0 μg/ml,0.83 ± 0.70
same,survival rate (%),[3]; 10.0 μg/ml,79.8%
same,death of the cells (in words),[3]; concentration of 10 μg/ml,caused the death of the cells
same,death of the cells (in words),[3]; concentration of lower than 2 μg/ml,did not cause the death of the cells
same,cytotoxicity (in words),[3]; low concentration,no cytotoxicity
same,phosphorylation of JNK,[4],inhibited
same,phosphorylation of ERK,[5],inhibited
same,expression of c-Jun in the nucleus,[6],inhibited
same,expression of procollagen-1,[7],increased
same,Inhibition rate (%) of gelatin decomposing activity,[8]; 25 μg/ml,3.7%
same,Inhibition rate (%) of gelatin decomposing activity,[8]; 50 μg/ml,24.0%
same,Inhibition rate (%) of gelatin decomposing activity,[8]; 100 μg/ml,62.7%
same,Inhibition rate (%) of gelatin decomposing activity,[8]; 200 μg/ml,75.3%
same,activity of gelatin decomposition of the matrix metalloproteinase (in words),[8]; 25-200 μg/ml,significantly inhibited
same,phosphorylation of p38,[9],inhibited
same,expression of c-Fos in the nucleus,[10],inhibited
